# Data as given in patent US20230271933A1, “HETEROCYCLIC IMMUNOMODULATOR” (Beijing Innocare Pharma Tech Co., Ltd., priority 2020, published 2023).
# Tests used:
# IL-2 = assay: Stimulation of IL-2 secretion in anti-CD3-stimulated hPBMC (ELISA); type: cell-based, human; conditions: Homo sapiens, anti-CD3 antibody, 72 hours
# Experimental: (§1) The immunomodulatory function of the compound of the present invention was evaluated by detecting its effect on the secretion amount of TNFα and IL-2 in cells from the human peripheral blood mononuclear cells (hPBMC) by the enzyme linked immunosorbent assay (ELISA) method.
# (§2) The peripheral blood of healthy volunteers was collected by using EDTA anticoagulant tubes, and diluted with phosphate buffered saline (PBS) containing 2% fetal bovine serum (Gibco, Cat. No. 10099-141) in an equal volume ratio. 30 mL of the resulting diluted sample was transferred into a Sepmate-50 centrifuge tube (Stemcell, Cat. No. 86450) to which 15 mL of a density-gradient centrifugation liquid (Sigma, Cat. No. 10771) had been added in advance, and centrifuged at room temperature at 1200×g for 10 minutes. The liquid containing PBMC in the upper layer was transferred to a new 50-mL centrifuge tube, and centrifuged at room temperature at 300×g for 8 minutes. The supernatant was discarded, and the resulting PBMC was resuspended to 5×10^6/mL by using RPMI 1640 medium (Gibco, Cat. No. 72400-047). 80 μL of the resulting suspension was added to each well in a 96-well plate.
# (§3) Each concentration was further diluted 50-fold with RPMI 1640 medium. 10 μL of each compound solution was added into the cells in the above 96-well plate. The 96-well plate was placed in an incubator, and the cells were cultured at 37° C. and 5% CO2 for 1 hour. 10 μL of LPS (Sigma, Cat. No. L-2880) with a concentration of 100 ng/mL was added, and the cells were continuously cultured in the incubator at 37° C. and 5% CO2 overnight. Supernatants were collected for the detection of TNFα.
# The above-mentioned 96-well plate can also be placed in an incubator, and the cells were cultured at 37° C. and 5% CO2 for 1 hour. 10 μL of anti-CD3 antibody (Thermo Fisher, Cat. No. 14-0037-82) with a concentration of 500 ng/mL was added, and the cells were continuously cultured in the incubator at 37° C. and 5% CO2 for 72 hours. Supernatants were collected for the detection of IL-2.
# (§4) TNFα and IL-2 were detected respectively according to each instruction of the ELISA kits (R&D, Cat. No. DY210 and DY202, respectively) to obtain the OD450 values for each well. The group containing 0.2% DMSO medium was used as 0% inhibition or stimulation. The XLfit software was used to plot the compound inhibition or stimulation curve and calculate the corresponding IC50 or EC50.
# TNFα = assay: Inhibition of TNFα secretion in LPS-stimulated hPBMC (ELISA); type: cell-based; conditions: Homo sapiens, overnight, read-out: IC50 (nM) for the inhibition of the TNFa secretion
# Experimental: as §1, §2, §3, §4
compound,measurement,setting,value
"C[C@H](c1ccc(COc2cccc3c2CN([C@H]2CCC(=O)NC2=O)C3=O)cc1)N1CCN(c2ccc(C#N)cc2F)CC1 [Compound 6, 4-(4-((R)-1-(4-(((2-((S)-2,6-dioxopiperidin-3-yl)-1-oxoisoindolin-4-yl)oxy)methyl)phenyl)ethyl)piperazin-1-yl)-3-fluorobenzonitrile]",EC50,IL-2,2.3 nM
same,IC50,TNFα,2.8 nM
"C[C@H](c1ccc(COc2cccc3c2CN([C@H]2CCC(=O)NC2=O)C3=O)cc1)N1CCN(c2ccc(C#N)cn2)CC1 [Compound 16, 6-(4-((R)-1-(4-(((2-((S)-2,6-dioxopiperidin-3-yl)-1-oxoisoindolin-4-yl)oxy)methyl)phenyl)-ethyl)piperazin-1-yl)nicotinonitrile]",EC50,IL-2,5.5 nM
same,IC50,TNFα,1.3 nM
"C[C@H](c1ccc(COc2cccc3c2CN([C@H]2CCC(=O)NC2=O)C3=O)cc1)N1CCN(c2ccc(C#N)nc2)CC1 [Compound 21, 5-(4-((R)-1-(4-(((2-((S)-2,6-dioxopiperidin-3-yl)-1-oxoisoindolin-4-yl)oxy)methyl)phenyl)ethyl)piperazin-1-yl)-2-cyanopyridine]",EC50,IL-2,3.8 nM
same,IC50,TNFα,0.5 nM
"C[C@H](c1ccc(COc2cccc3c2CN([C@H]2CCC(=O)NC2=O)C3=O)cc1)N1CCN(c2ncc(C#N)cc2F)CC1 [Compound 22, 6-(4-((R)-1-(4-(((2-((S)-2,6-dioxopiperidin-3-yl)-1-oxoisoindolin-4-yl)oxy)methyl)phenyl)-ethyl)piperazin-1-yl)-5-fluoronicotinonitrile]",EC50,IL-2,26 nM
same,IC50,TNFα,4.7 nM
